Measured values: article PMC7485652 (Saudi Journal of Medicine & Medical Sciences, 2020)
Like-named read-outs stand apart in the source and are kept apart here.

What was measured:
[1] = with probenecid, by inhibition of UGT glucuronidation enzymes; cited from earlier work
CYP3A4 = conditions: cited from earlier work
[2] = cited from earlier work; for decrease of plasma concentration of quetiapine: administration of lamotrigine
[3] = for plasma level of quetiapine / hmax: male rats; for hmax: mean±SD
[4] = quetiapine 50 mg/kg oral after probenecid 50 mg/kg oral
[5] = quetiapine alone, 50 mg/kg single oral dose

## Cc1cc2c(s1)Nc1ccccc1N=C2N1CCN(C)CC1 [olanzapine]
[1]
  level of olanzapine: increases

## CCCC(CCC)C(=O)O [Valproic acid]
CYP3A4
  inhibition of CYP3A4: weak inhibitor

## OCCOCCN1CCN(C2=Nc3ccccc3Sc3ccccc32)CC1 [Quetiapine]
[2]; study with 22 patients
  decrease of plasma concentration of quetiapine: 58%
[2]; study with 144 patients
  decrease of plasma concentration of quetiapine: 17%
[2]; co-administered valproic acid, elderly patients
  increase of plasma level of quetiapine: 77%
[2]; coadministered with sodium divalproex, adult patients, nonsignificant
  increase of Cmax of quetiapine: 17%
[2]; coadministered with sodium divalproex, adult patients
  change in AUC τ of quetiapine: no changes
[2]; coadministered with valproic acid, adult patients, ref Santoro et al. 20
  effect of coadministration on quetiapine: nonsignificant results
[3]; [4]
  plasma level of quetiapine: 323 ± 128 ng/mL
  hmax: 0.63 ± 0.3 h
[3]; [5]
  plasma level of quetiapine: 155 ± 37 ng/mL
  hmax: 5 ± 2 h
[3]; quetiapine plus probenecid vs quetiapine alone, rats
  difference in half-life of quetiapine between groups: no significant difference
